Results on three compounds are retold here after patent publication US8252832B2, “Kinesin inhibitors as cancer therapeutics” (Novartis AG, priority 2007, dated 2012).

Series [1] addresses T1, motor domain of human KSP (Eg 5, KNSL1) (Homo sapiens, UniProt P52732).
T1 construct: KSP motor protein (i.e., the KSP motor domain); made in house
T1 sequence (P52732 18-359 limits assumed): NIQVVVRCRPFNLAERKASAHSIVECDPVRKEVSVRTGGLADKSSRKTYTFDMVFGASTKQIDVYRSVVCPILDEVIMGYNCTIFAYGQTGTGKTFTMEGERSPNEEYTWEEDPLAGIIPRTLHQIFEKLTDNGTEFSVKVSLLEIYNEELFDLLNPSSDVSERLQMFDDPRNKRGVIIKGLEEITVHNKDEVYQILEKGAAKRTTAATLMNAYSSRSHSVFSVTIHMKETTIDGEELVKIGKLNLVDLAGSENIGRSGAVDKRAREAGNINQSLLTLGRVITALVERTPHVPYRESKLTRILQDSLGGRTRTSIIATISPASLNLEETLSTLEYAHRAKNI
Kind of series: Assay for determining KSP activity (microtubule/KSP ATPase, Biomol Green). In kind it is biochemical. The settings on record: read-out: In vitro activity (IC-50 - nm). As for the experimental part: Purified microtubules obtained from bovine brain were purchased from Cytoskeleton Inc. (Denver, Colo., USA). The motor domain of human KSP (Eg 5, KNSL1) was cloned, expressed, and purified to greater than 95% homogeneity. Biomol Green™ was purchased from Affinity Research Products Ltd. (Matford Court, Exeter, Devon, United Kingdom). Microtubules and KSP motor protein (i.e., the KSP motor domain) were diluted in assay buffer (20 mM Tris-HCl (pH 7.5), 1 mM MgCl2, 10 mM DTT and 0.25 mg/mL BSA) to a final concentration of 35 μg/mL microtubules and 45 nM KSP. The microtubule/KSP mixture was then pre-incubated at 37° C. for 10 min to promote the binding of KSP to microtubules.
To each well of the testing plate (384-well plate) containing 1.25 μL of inhibitor or test compound in DMSO (or DMSO only, in the case of controls) were added 25 μL of ATP solution (ATP diluted to a concentration of 300 μM in assay buffer) and 25 μL of the above-described microtubule/KSP solution. The plates were incubated at RT for 1 hour. Following incubation, 65 μL of Biomol Green™ (a malachite green-based dye that detects the release of inorganic phosphate) was added to each well. The plates were incubated for an additional 5-10 minutes then the absorbance at 630 nm was determined using a Victor II plate reader. The amount of absorbance at 630 nm corresponded to the amount of KSP activity in the samples. The IC50 of each inhibitor or test compound was then determined based on the decrease in absorbance at 630 nm at each concentration, via nonlinear regression using either XLFit for Excel or Prism data analysis software by GraphPad Software Inc.

Series [2] is described as follows: In vivo pharmacokinetic parameters (clearance, half-life, AUC). As to conditions: for clearance: read-out: In vivo Clearance rate.
A further series deals with KB8.5 tumor xenograft. Briefly: KB8.5 tumor xenograft model (P-gp expressing), tumor response. It counts as in vivo, mouse. The settings on record: for ΔT/ΔC, Day 11 (%): q4d × 3. How it is done:
Cells were cultured for fewer than 10 passages prior to use. […] All data were expressed as mean and SEM. Between-groups comparisons for final tumor measurements were performed using the one-way ANOVA pair-wise analysis. Significance was determined using Kruskal-Wallis one-way ANOVA on Ranks, followed by appropriate post-hoc test (Dunn's Method or Tukey Test) for multiple pair-wise comparisons. Statistical analysis was carried out using SigmaStat (Systat Software Inc., San Jose, Calif.).

For series [3] the following is noted: for Survival (alive/total) / % Max. Δ body weight, (Day): q4d × 3. How it is done:
Experiments were performed using outbred athymic nu/nu mice (Charles River Laboratories) approximately 6-8 weeks old. Upon arrival, animals received a subcutaneous microchip implant (AVID, Folsom, La.) in the subscapular region for identification of individuals. Animals were allowed to acclimatize for 1 week before any experimental procedures began.
Compound IIa, compound IIc, compound IIa (shown below), and SB-715992 were formulated in a Captisol®-based formulation. Doses were administered intravenously (i.v.) and adjusted to each animal's body weight. Formulations were made once at the beginning of study and stored at room temperature. Clinical grade paclitaxel was purchased pre-mixed in a cremophor-based vehicle (Mayne Pharma, now Hospira, Lake Forest, Ill., catalog #NDC-6170334209) and diluted in sterile saline to provide a dose volume of 16 mL/kg for a 30 mg/kg dose administered intraperitoneally (i.p.)
For the efficacy studies, mice were enrolled with a mean tumor volume of approximately 300 mm^3. Tumor xenografts were measured in two dimensions (L and W) with digital calipers twice weekly from the start of dosing on Day 0. Tumor volume was calculated as (L×W^2)/2. Body weights were measured twice weekly and clinical observations were recorded daily. Tumor volume and body weights were captured and stored by StudyDirector software (StudyLog, South San Francisco, Calif.).

The next series concerns HCT-15. Briefly: CellTiter-Glo proliferation, 72 hours. It counts as cell-based. The settings on record: Homo sapiens; Colon, HCT-15, 72 hours. The source says: (§1) Cell lines used were as follows: HCT-116 (National Cancer Institute's DCTF Tumor Repository, catalog #NCI-502568, Rockville, Md.), HCT-15 (National Cancer Institute's DCTF Tumor Repository, catalog#NCI-502711, Rockville, Md. available from American Type Tissue Collection, catalog #CLL-225), KB-3-1 (available from DSMZ, Deutsche Sammlung von Mikroorganismen und Zellkulturen GmbH (German Collection of Microorganisms and Cell Cultures—catalog number ACC 158), KB-V1 (available from DSMZ—catalog number ACC 149), AGS (available from American Type Culture Collection, Manassas Va., catalog number CRL-1739™), N87 (available from American Type Culture Collection, Manassas Va., catalog number CRL-5822), Hel92.1.7 (available from American Type Culture Collection, Manassas Va., catalog number TIB 180), K562 (available from American Type Culture Collection, Manassas Va., catalog number CRL-243™), MV4; 11 (American Tissue Culture Collection, Manassas Va., catalog number CRL-9591) and U937 (available from American Type Culture Collection, Manassas Va., catalog number CRL-1593.2).
(§2) Cells were plated in 96-well plates at densities of about 500 cells per well of a 96-well plate and allowed to grow for 24 hours. The cells were then treated with various concentrations of compounds for 72 hours. Then, 100 μl of CellTiter-Glo® reagent was added (Promega Corporation). CellTiter-Glo® is used in a homogeneous method of determining the number of viable cells using the single CellTiter-Glo® reagent to detect ATP (U.S. Pat. Nos. 6,602,677 and 7,241,584) (see Promega product catalog #G7570). Following the addition of the CellTiter-Glo® reagent, the cells were incubated in the dark for 30 minutes. The amount of luminescence was determined for each well using a Wallac Trilux plate reader, which correlates with the number of cells per well. The number of viable cells in the wells that receive only DMSO (0.5%) served as an indication of 0% inhibition, while wells without cells served as 100% inhibition of cell growth. […] This broad activity is consistent with a compound that is a mitotic inhibitor.

The next series has as its system KB3.1. Briefly: CellTiter-Glo proliferation, 72 hours. In kind it is cell-based. The settings on record: Homo sapiens, KB 3-1; Epidermoid, KB3.1, 72 hours.
Description: as §1, §2
In general terms: In ATP-based viability assays light output follows the ATP content of the culture.

For the next series, the system named is KB8.5. Kind of series: CellTiter-Glo proliferation, 72 hours. In kind it is cell-based. As to conditions: Homo sapiens; Epidermoid, KB8.5, 72 hours.

Like-named read-outs stand apart in the source and are kept apart here. Marks after values point to notes of the source that are not given here.

Turning to `C[C@H](O)C(=O)N(CC[C@H](N)CF)[C@@H](c1nc(-c2cc(F)ccc2F)cn1Cc1ccccc1)C(C)(C)C` [Compound IIc], the IC50 in series [1] is 0.9 nM. In series [2], the area under the curve (AUC) was 1700 ng·h/mL, the half-life was 1.83 h and the clearance is 47 mL/min/kg. The “percent ΔT/ΔC” value in the series with KB8.5 tumor xenograft (1.25 mg/kg, q4d×3, day 11) worked out at 39%. For the same compound, in the series with KB8.5 tumor xenograft (Table 14 study, 1.25 mg/kg, i.v., KB8.5 xenograft, female nu/nu mice, p < 0.05 versus vehicle), the “ΔT/ΔC, Day 11 (%)” value is 39* %. Moreover, the body weight entry in series [3] (2.5 mg/kg treated group) is “significant weight loss”. Also, the “Survival (alive/total)” value in series [3] (Table 14 study, 1.25 mg/kg, i.v.) was 9/9. Moreover, the “% Max. Δ body weight, (Day)” value in series [3] (Table 14 study, 1.25 mg/kg, i.v., D11) is −5 (D11) %. In addition, the “% Max. Δ body weight, (Day)” value in series [3] (Table 14 study, 2.5 mg/kg, i.v., D8) is listed as −10 (D8) %. Further, the “Survival (alive/total)” value in series [3] (Table 14 study, 2.5 mg/kg, i.v., due to 4/9 mice having 15% weight loss or more) is “All down on Day 8”.
For `COCC(=O)N(CC[C@H](N)CF)[C@@H](c1nc(-c2cc(F)ccc2F)cn1Cc1ccccc1)C(C)(C)C` [Compound Ia], the IC50 in series [1] is 0.6 nM. Besides, the results for the GI50 in the series on HCT-15, in the series on KB3.1 and in the series on KB8.5 were 0.3 nM, 0.4 nM and 0.4 nM, respectively. In series [2], this compound showed an AUC of 2670 ng·h/mL. The compound further showed a half-life in series [2] of 1.95 h. In addition, in series [2], the clearance is 29 mL/min/kg. For the same compound, in the series with KB8.5 tumor xenograft (5 mg/kg, q4d×3), the “efficacy in the KB8.5 tumor xenograft model” value was “not efficacious”. Also, the “ΔT/ΔC, Day 11 (%)” value with KB8.5 tumor xenograft (Table 15 study, 1.25 mg/kg, i.v., not statistically different from vehicle) came out at 84%; in the series on KB8.5 tumor xenograft (Table 15 study, 2.5 mg/kg, i.v., not statistically different from vehicle), 61%; with KB8.5 tumor xenograft (Table 15 study, 5 mg/kg, iv., not statistically different from vehicle), 66%. The “Survival (alive/total)” value was 10/10 in series [3] (Table 15 study, 1.25 mg/kg, i.v.); 10/10 in series [3] (Table 15 study, 2.5 mg/kg, i.v.); 10/10 in series [3] (Table 15 study, 5 mg/kg, iv.). Besides, the “% Max. Δ body weight, (Day)” value is 1 (D11) % in series [3] (Table 15 study, 1.25 mg/kg, i.v., D11); −0.4 (D4) % in series [3] (Table 15 study, 2.5 mg/kg, i.v., D4); −2 (D4) % in series [3] (Table 15 study, 5 mg/kg, iv., D4).
Consider `CC(=O)N(CC[C@H](N)CF)[C@@H](c1nc(-c2cc(F)ccc2F)cn1Cc1ccccc1)C(C)(C)C` [Compound Ib], for which, in series [1], the IC50 was 22 nM. Moreover, in series [2], the AUC is 867 ng·h/mL, the half-life is 1.5 h and the clearance came out at 94 mL/min/kg.

The AUC is the area under the concentration-time curve, a measure of exposure. A higher AUC goes with more exposure. The half-life is the time in which the quantity being followed falls by half. A high value points to slow decline. The clearance is a measure of how efficiently the substance is removed, as volume per time. For orientation: GI50 means the concentration at which growth is held to half of that of the control. Low readings indicate more potent growth inhibition, high ones less potent growth inhibition.
